Tests used:
Assay type in all cases: in vivo
kochia (Bassia scoparia) [1] = assay: Test A1 postemergence, kochia; conditions: for Plant response rating, Kochia: Postemergence
Method in brief: (§1)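 Plants grown in pots of loam/sand mix; preemergence = soil-directed spray on seeded pots, postemergence = spray at 1–2 leaves, height 2–10 cm; test chemicals formulated in non-phytotoxic solvent with surfactant.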

soybean (Glycine max) [2] = assay: Test A1 postemergence, soybean; conditions: for Plant response rating, Soybean: Postemergence
Method in brief: as §1

[3] = tested on: Ryegrass, Italian (Italian ryegrass, Lolium multiflorum); assay: Test A1 preemergence, Ryegrass, Italian
Method in brief: as §1

[4] = tested on: horseweed (Erigeron canadensis); assay: Test A1 postemergence, horseweed; conditions: for Plant response rating, Horseweed: Postemergence
Method in brief: as §1

[5] = tested on: ducksalad (Heteranthera limosa); assay: Test B1 flooded paddy test, ducksalad; conditions: 250 g ai/ha, Flood, applied to paddy water, 2-leaf stage, visually evaluated after 10 to 14 days
Description: (§2) A dash (-) response means no test result.

[6] = tested on: wheat (Triticum aestivum); assay: Test A1 preemergence, wheat
Method in brief: as §1

[7] = tested on: ragweed (common ragweed, Ambrosia artemisiifolia); assay: Test A1 preemergence, ragweed
Method in brief: as §1

[8] = tested on: wheat (Triticum aestivum); assay: Test A1 postemergence, wheat; conditions: for Plant response rating, Wheat: Postemergence
Method in brief: as §1

[9] = tested on: Foxtail, Giant (giant foxtail, Setaria faberi); assay: Test A1 postemergence, Foxtail, Giant; conditions: for Plant response rating, Foxtail, Giant: Postemergence
Method in brief: as §1

[10] = tested on: Pigweed, Palmer (palmer amaranth, palmer pigweed, Amaranthus palmeri); assay: Test A1 preemergence, Pigweed, Palmer
Method in brief: as §1

[11] = tested on: Foxtail, Giant (giant foxtail, Setaria faberi); assay: Test A1 preemergence, Foxtail, Giant
Method in brief: as §1

rice (Oryza sativa) = assay: Test B1 flooded paddy test, rice; conditions: 250 g ai/ha, Flood, applied to paddy water, 2-leaf stage, visually evaluated after 10 to 14 days
Description: as §2

[12] = tested on: goosegrass (Eleusine indica); assay: Test A1 postemergence, goosegrass; conditions: for Plant response rating, Goosegrass: Postemergence
Method in brief: as §1

[13] = tested on: Oat, Wild (wild oat, Avena fatua); assay: Test A1 preemergence, Oat, Wild
Method in brief: as §1

[14] = tested on: Ryegrass, Italian (Italian ryegrass, Lolium multiflorum); assay: Test A1 postemergence, Ryegrass, Italian; conditions: for Plant response rating, Ryegrass, Italian: Postemergence
Method in brief: as §1

[15] = tested on: Oat, Wild (wild oat, Avena fatua); assay: Test A1 postemergence, Oat, Wild; conditions: for Plant response rating, Oat, Wild: Postemergence
Method in brief: (§3)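 Plants were grown in a loam soil/sand blend, with test chemicals formulated in a non-phytotoxic solvent mixture containing surfactant. Preemergence treatment (corn) was a directed soil spray at planting. Postemergence treatment was applied to plants 2 to 10 cm tall at the one- to two-leaf stage.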

[16] = tested on: Pigweed, Palmer (palmer amaranth, palmer pigweed, Amaranthus palmeri); assay: Test A1 postemergence, Pigweed, Palmer; conditions: for Plant response rating, Pigweed, Palmer: Postemergence
Method in brief: as §3

corn (Zea mays) [17] = assay: Test A1 postemergence, corn; conditions: for Plant response rating, Corn: Postemergence
Method in brief: as §1

[18] = tested on: goosegrass (Eleusine indica); assay: Test A1 preemergence, goosegrass
Method in brief: as §1

soybean (Glycine max) [19] = assay: Test A1 preemergence, soybean
Method in brief: as §1

[20] = tested on: galium (catchweed bedstraw, Galium aparine); assay: Test A1 postemergence, galium; conditions: for Plant response rating, Galium: Postemergence
Method in brief: as §1

[21] = tested on: blackgrass (Alopecurus myosuroides); assay: Test A1 postemergence, blackgrass; conditions: 0 to 100 scale (0 no effect, 100 complete control); for Plant response rating, Blackgrass: Postemergence
Method in brief: as §1

[22] = tested on: ragweed (common ragweed, Ambrosia artemisiifolia); assay: Test A1 postemergence, ragweed; conditions: for Plant response rating, Ragweed: Postemergence
Method in brief: as §3

[23] = tested on: blackgrass (Alopecurus myosuroides); assay: Test A1 preemergence, blackgrass
Method in brief: as §1

[24] = tested on: barnyardgrass (Echinochloa crus-galli); assay: Test B1 flooded paddy test, barnyardgrass; conditions: 250 g ai/ha, Flood, applied to paddy water, 2-leaf stage, visually evaluated after 10 to 14 days
Description: as §2

kochia (Bassia scoparia) [25] = assay: Test A1 preemergence, kochia
Method in brief: as §1

corn (Zea mays) [26] = assay: Test A1 preemergence, corn
Method in brief: as §3

[27] = 31 g ai/ha, 0 to 100 scale (0 no effect, 100 complete control), 10 days
[28] = 31 g ai/ha, 0 to 100 scale (0 no effect, 100 complete control)
[29] = 125 g ai/ha, 0 to 100 scale, 0 no effect, 100 complete control
[30] = 31 g ai/ha, postemergence, 0 to 100 scale (0 no effect, 100 complete control)
[31] = 125 g ai/ha, 0 to 100 scale (0 no effect, 100 complete control), 10 days

## CCOC(=O)N(c1cc(C(=O)N2CCOCC2)c(C)cc1C)S(=O)(=O)C(F)(F)F [Compound 363]
Kochia (Bassia scoparia) [1]; [27]
  Plant response rating, Kochia: 50
Kochia (Bassia scoparia) [1]; 125 g ai/ha, 0 to 100 scale
  Plant response rating, Kochia: 70
Soybean (Glycine max) [2]; [27]
  Plant response rating, Soybean: 60
Soybean (Glycine max) [2]; 125 g ai/ha, 0 to 100 scale
  Plant response rating, Soybean: 60
[3]; [28]
  Plant response rating, Ryegrass, Italian: 80
[3]; [29]
  Plant response rating, Ryegrass, Italian: 100
[4]; [27]
  Plant response rating, Horseweed: 80
[4]; 125 g ai/ha, 0 to 100 scale
  Plant response rating, Horseweed: 90
[5]
  Plant response rating, Ducksalad (0 to 100 scale, 0 is no effect, 100 is complete control): 70
[6]; [28]
  Plant response rating, Wheat: 40
[6]; [29]
  Plant response rating, Wheat: 90
[7]; [28]
  Plant response rating, Ragweed: 20
[7]; [29]
  Plant response rating, Ragweed: 80
[8]; [27]
  Plant response rating, Wheat: 40
[8]; 125 g ai/ha, 0 to 100 scale
  Plant response rating, Wheat: 60
[9]; [27]
  Plant response rating, Foxtail, Giant: 30
[9]; 125 g ai/ha, 0 to 100 scale
  Plant response rating, Foxtail, Giant: 90
[10]; [28]
  Plant response rating, Pigweed, Palmer: 90
[10]; [29]
  Plant response rating, Pigweed, Palmer: 100
[11]; [28]
  Plant response rating, Foxtail, Giant: 90
[11]; [29]
  Plant response rating, Foxtail, Giant: 100
Rice (Oryza sativa)
  Plant response rating, Rice (0 to 100 scale, 0 is no effect, 100 is complete control): 25
[12]; [27]
  Plant response rating, Goosegrass: 30
[12]; 125 g ai/ha, 0 to 100 scale
  Plant response rating, Goosegrass: 90
[13]; [28]
  Plant response rating, Oat, Wild: 30
[13]; [29]
  Plant response rating, Oat, Wild: 70
[14]; [27]
  Plant response rating, Ryegrass, Italian: 20
[14]; 125 g ai/ha, 0 to 100 scale
  Plant response rating, Ryegrass, Italian: 90
[15]; [27]
  Plant response rating, Oat, Wild: 20
[15]; 125 g ai/ha, 0 to 100 scale
  Plant response rating, Oat, Wild: 50
[16]; [27]
  Plant response rating, Pigweed, Palmer: 0
[16]; 125 g ai/ha, 0 to 100 scale
  Plant response rating, Pigweed, Palmer: 10
Corn (Zea mays) [17]; [27]
  Plant response rating, Corn: 30
Corn (Zea mays) [17]; 125 g ai/ha, 0 to 100 scale
  Plant response rating, Corn: 60
[18]; [28]
  Plant response rating, Goosegrass: 100
[18]; [29]
  Plant response rating, Goosegrass: 100
Soybean (Glycine max) [19]; [28]
  Plant response rating, Soybean: 10
Soybean (Glycine max) [19]; [29]
  Plant response rating, Soybean: 30
[20]; [27]
  Plant response rating, Galium: 60
[20]; 125 g ai/ha, 0 to 100 scale
  Plant response rating, Galium: 90
[21]; 31 g ai/ha, 10 days
  Plant response rating, Blackgrass: 0
[21]; 125 g ai/ha
  Plant response rating, Blackgrass: 50
[22]; [27]
  Plant response rating, Ragweed: 60
[22]; 125 g ai/ha, 0 to 100 scale
  Plant response rating, Ragweed: 70
[23]; [28]
  Plant response rating, Blackgrass: 50
[23]; [29]
  Plant response rating, Blackgrass: 90
[24]
  Plant response rating, Barnyardgrass (0 to 100 scale, 0 is no effect, 100 is complete control): 50
Kochia (Bassia scoparia) [25]; [28]
  Plant response rating, Kochia: 80
Kochia (Bassia scoparia) [25]; [29]
  Plant response rating, Kochia: 100
Corn (Zea mays) [26]; [28]
  Plant response rating, Corn: 0
Corn (Zea mays) [26]; [29]
  Plant response rating, Corn: 60

## Cc1cc(C)c(N2CC3(CCCCC3)CC2=O)cc1NS(=O)(=O)C(F)(F)F [Compound 392]
Kochia (Bassia scoparia) [1]; [30]
  Kochia plant response rating: 10
Kochia (Bassia scoparia) [1]; [31]
  Plant response rating, Kochia: 20
Soybean (Glycine max) [2]; [30]
  Soybean plant response rating: 50
Soybean (Glycine max) [2]; [31]
  Plant response rating, Soybean: 60
[3]; [28]
  Plant response rating, Ryegrass, Italian: 0
[3]; [29]
  Plant response rating, Ryegrass, Italian: 60
[4]; [30]
  Horseweed plant response rating: 0
[4]; [31]
  Plant response rating, Horseweed: 20
[5]
  Plant response rating, Ducksalad (0 to 100 scale, 0 is no effect, 100 is complete control): 65
[6]; [28]
  Plant response rating, Wheat: 0
[6]; [29]
  Plant response rating, Wheat: 50
[7]; [28]
  Plant response rating, Ragweed: 0
[7]; [29]
  Plant response rating, Ragweed: 0
[8]; [30]
  Wheat plant response rating: 0
[8]; [31]
  Plant response rating, Wheat: 30
[9]; [30]
  Foxtail, Giant plant response rating: 0
[9]; [31]
  Plant response rating, Foxtail, Giant: 0
[10]; [28]
  Plant response rating, Pigweed, Palmer: 0
[10]; [29]
  Plant response rating, Pigweed, Palmer: 20
[11]; [28]
  Plant response rating, Foxtail, Giant: 0
[11]; [29]
  Plant response rating, Foxtail, Giant: 100
Rice (Oryza sativa)
  Plant response rating, Rice (0 to 100 scale, 0 is no effect, 100 is complete control): 0
[12]; [30]
  Goosegrass plant response rating: 0
[12]; [31]
  Plant response rating, Goosegrass: 0
[13]; [28]
  Plant response rating, Oat, Wild: 20
[13]; [29]
  Plant response rating, Oat, Wild: 60
[14]; [30]
  Ryegrass, Italian plant response rating: 0
[14]; [31]
  Plant response rating, Ryegrass, Italian: 0
[15]; [30]
  Oat, Wild plant response rating: 0
[15]; [31]
  Plant response rating, Oat, Wild: 0
[16]; [30]
  Pigweed, Palmer plant response rating: 0
[16]; [31]
  Plant response rating, Pigweed, Palmer: 40
Corn (Zea mays) [17]; [30]
  Corn plant response rating: 0
Corn (Zea mays) [17]; [31]
  Plant response rating, Corn: 0
[18]; [28]
  Plant response rating, Goosegrass: 40
[18]; [29]
  Plant response rating, Goosegrass: 100
Soybean (Glycine max) [19]; [28]
  Plant response rating, Soybean: 0
Soybean (Glycine max) [19]; [29]
  Plant response rating, Soybean: 0
[20]; [30]
  Galium plant response rating: 50
[20]; [31]
  Plant response rating, Galium: 80
[21]; 31 g ai/ha, postemergence
  Blackgrass plant response rating: 0
[21]; 125 g ai/ha, 10 days
  Plant response rating, Blackgrass: 0
[22]; [30]
  Ragweed plant response rating: 30
[22]; [31]
  Plant response rating, Ragweed: 70
[23]; [28]
  Plant response rating, Blackgrass: 10
[23]; [29]
  Plant response rating, Blackgrass: 40
[24]
  Plant response rating, Barnyardgrass (0 to 100 scale, 0 is no effect, 100 is complete control): 0
Kochia (Bassia scoparia) [25]; [28]
  Plant response rating, Kochia: 20
Kochia (Bassia scoparia) [25]; [29]
  Plant response rating, Kochia: 20
Corn (Zea mays) [26]; [28]
  Plant response rating, Corn: 10
Corn (Zea mays) [26]; [29]
  Plant response rating, Corn: 10

From patent US20230278972A1, “SUBSTITUTED HALOALKYL SULFONANILIDE HERBICIDES” (FMC Corporation, priority 2020, published 2023)
